Test results published in ChEMBL document CHEMBL4732174, “Discovery of 6-(7-Nitro-2,1,3-benzoxadiazol-4-ylthio)hexanol Derivatives as Glutathione Transferase Inhibitors with Favorable Selectivity and Tolerated Toxicity” (J Med Chem, 2021).
Converted amounts (≈) assume the structure as drawn.

What was measured:
143B [1] = experiment: Induction of cell cycle arrest in human 143B cells assessed as accumulation at S phase at 10 uM incubated for 48 hrs by propidium iodide staining based flow cytometry (reference value: 32.03 %); format: functional
[2] = Toxicity in BALB/c nude mouse xenografted with human 143B cells assessed as cellular inflammation in heart at 5 to 20 mg/kg, po administered once daily for 28 consecutive days by hematoxylin-eosin staining based assay; format: organism-based; conditions: in vivo, 672 h, dose 5-20 mg/kg, time 28 day
[3] = MRT (0 to t) in Sprague-Dawley rat at 80 mg/kg, po administered as single dose measured upto 48 hrs by LC-MS/MS analysis; conditions: in vivo
A549 = experiment: Antiproliferative activity against human A549 cells assessed as inhibition of cell proliferation incubated for 72 hrs by MTT assay; format: functional, cell-based; conditions: A549, 72 h
143B [4] = experiment: Induction of cell cycle arrest in human 143B cells assessed as accumulation at G1 phase at 2.5 uM incubated for 48 hrs by propidium iodide staining based flow cytometry (reference value: 66.62 %); format: functional
[5] = Toxicity in BALB/c nude mouse xenografted with human 143B cells assessed as body weight loss at 20 mg/kg, po administered once daily for 28 consecutive days and measured every 3 days; format: organism-based; conditions: in vivo, 672 h, time 28 day
143B [6] = experiment: Antiproliferative activity against human 143B cells assessed as inhibition of cell proliferation incubated for 72 hrs by MTT assay; format: functional, cell-based
143B [7] = experiment: Induction of cell cycle arrest in human 143B cells assessed as accumulation at G2 phase at 10 uM incubated for 48 hrs by propidium iodide staining based flow cytometry (reference value: 1.35 %); format: functional
HUVEC = experiment: Cytotoxicity against HUVEC assessed as reduction in cell viability incubated for 72 hrs by MTT assay; format: cell-based; conditions: Homo sapiens
[8] = Toxicity in BALB/c nude mouse xenografted with human 143B cells assessed as liver edema at 5 to 20 mg/kg, po administered once daily for 28 consecutive days by hematoxylin-eosin staining based assay; format: organism-based; conditions: in vivo, 672 h, dose 5-20 mg/kg, time 28 day
[9] = Water solubility of the compound measured by UV-Visible spectral analysis; format: physicochemical; conditions: water; read-out: solubility
[10] = Toxicity in BALB/c nude mouse xenografted with human 143B cells assessed as necrosis in heart at 5 to 20 mg/kg, po administered once daily for 28 consecutive days by hematoxylin-eosin staining based assay; format: organism-based; conditions: in vivo, 672 h, dose 5-20 mg/kg, time 28 day
143B [11] = experiment: Induction of apoptosis in human 143B cells assessed as apoptotic cells at 5 uM incubated for 24 hrs by Annexin V-FITC/PI double staining based flow cytometric analysis (reference value: 3.9%); format: functional
143B [12] = experiment: Induction of cell cycle arrest in human 143B cells assessed as accumulation at G2 phase at 5 uM incubated for 48 hrs by propidium iodide staining based flow cytometry (reference value: 1.35 %); format: functional
in vivo [13] = conditions: Sprague-Dawley, rat, po, 80 mg/kg
Description: Cmax in Sprague-Dawley rat at 80 mg/kg, po administered as single dose measured upto 48 hrs by LC-MS/MS analysis

[14] = Toxicity in BALB/c nude mouse xenografted with human 143B cells assessed as heart edema at 5 to 20 mg/kg, po administered once daily for 28 consecutive days by hematoxylin-eosin staining based assay; format: organism-based; conditions: in vivo, 672 h, dose 5-20 mg/kg, time 28 day
[15] = Toxicity in BALB/c nude mouse xenografted with human 143B cells assessed as necrosis in kidney at 5 to 20 mg/kg, po administered once daily for 28 consecutive days by hematoxylin-eosin staining based assay; format: organism-based; conditions: in vivo, 672 h, dose 5-20 mg/kg, time 28 day
143B [16] = experiment: Induction of apoptosis in human 143B cells assessed as apoptotic cells at 2.5 uM incubated for 24 hrs by Annexin V-FITC/PI double staining based flow cytometric analysis (reference value: 3.9%); format: functional
[17] = MRT (0 to infinity) in Sprague-Dawley rat at 80 mg/kg, po administered as single dose measured upto 48 hrs by LC-MS/MS analysis; conditions: in vivo
liver carboxylesterase = molecular target: T1, liver carboxylesterase (Sus scrofa, UniProt Q29550); experiment: Stability of the compound assessed as pig liver carboxylesterase-mediated compound hydrolysis at 10 mM measured after 12 hrs by HPLC analysis; format: ADME; conditions: read-out: Drug degradation
T1 sequence (Q29550 whole entry): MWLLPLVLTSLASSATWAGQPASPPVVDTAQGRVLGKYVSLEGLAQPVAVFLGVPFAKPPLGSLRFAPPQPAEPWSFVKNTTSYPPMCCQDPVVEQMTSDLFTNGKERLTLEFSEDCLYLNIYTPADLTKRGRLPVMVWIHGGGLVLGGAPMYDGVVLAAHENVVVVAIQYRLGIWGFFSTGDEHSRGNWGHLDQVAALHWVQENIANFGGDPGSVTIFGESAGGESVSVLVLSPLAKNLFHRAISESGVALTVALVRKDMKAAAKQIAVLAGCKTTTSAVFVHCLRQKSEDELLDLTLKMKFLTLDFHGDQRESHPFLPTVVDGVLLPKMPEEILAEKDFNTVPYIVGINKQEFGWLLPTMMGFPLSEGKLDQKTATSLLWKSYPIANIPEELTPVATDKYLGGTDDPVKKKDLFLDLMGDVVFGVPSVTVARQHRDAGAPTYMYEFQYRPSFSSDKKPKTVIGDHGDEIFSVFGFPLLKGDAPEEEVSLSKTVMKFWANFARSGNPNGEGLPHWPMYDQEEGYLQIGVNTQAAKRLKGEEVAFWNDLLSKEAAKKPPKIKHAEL

[18] = Toxicity in BALB/c nude mouse xenografted with human 143B cells assessed as necrosis in liver at 5 to 20 mg/kg, po administered once daily for 28 consecutive days by hematoxylin-eosin staining based assay; format: organism-based; conditions: in vivo, 672 h, dose 5-20 mg/kg, time 28 day
[19] = Toxicity in BALB/c nude mouse xenografted with human 143B cells assessed as cellular inflammation in lung at 5 to 20 mg/kg, po administered once daily for 28 consecutive days by hematoxylin-eosin staining based assay; format: organism-based; conditions: in vivo, 672 h, dose 5-20 mg/kg, time 28 day
143B [20] = experiment: Induction of cell cycle arrest in human 143B cells assessed as accumulation at G1 phase at 10 uM incubated for 48 hrs by propidium iodide staining based flow cytometry (reference value: 66.62 %); format: functional
[21] = Toxicity in BALB/c nude mouse xenografted with human 143B cells assessed as necrosis in lung at 5 to 20 mg/kg, po administered once daily for 28 consecutive days by hematoxylin-eosin staining based assay; format: organism-based; conditions: in vivo, 672 h, dose 5-20 mg/kg, time 28 day
[22] = Antiproliferative activity against […] B16 cells assessed as inhibition of cell proliferation incubated for 72 hrs by MTT assay; format: functional, cell-based; conditions: B16, 72 h
[23] = molecular target: T2, Glutathione S-transferase P (Homo sapiens, UniProt P09211); experiment: Inhibition of GSTP1-1 (unknown origin) using reduced GSH and CDNB as substrate incubated for 10 mins followed by substrate addition by microplate reader analysis
Target sequence in this assay (P09211 whole entry): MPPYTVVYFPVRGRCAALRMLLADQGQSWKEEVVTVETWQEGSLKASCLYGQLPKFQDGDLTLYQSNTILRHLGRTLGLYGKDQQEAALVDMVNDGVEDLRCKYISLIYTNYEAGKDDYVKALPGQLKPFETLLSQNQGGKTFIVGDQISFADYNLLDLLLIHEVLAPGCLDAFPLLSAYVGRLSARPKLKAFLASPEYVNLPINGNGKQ

in vivo [24] = conditions: Sprague-Dawley, rat, po, 80 mg/kg; remark: listed apart in the source
Description: Tmax in Sprague-Dawley rat at 80 mg/kg, po administered as single dose measured upto 48 hrs by LC-MS/MS analysis

[25] = molecular target: T2, Glutathione S-transferase P; conditions: dose 0.1-5 µM
Target sequence in this assay (P09211 2-210 limits assumed): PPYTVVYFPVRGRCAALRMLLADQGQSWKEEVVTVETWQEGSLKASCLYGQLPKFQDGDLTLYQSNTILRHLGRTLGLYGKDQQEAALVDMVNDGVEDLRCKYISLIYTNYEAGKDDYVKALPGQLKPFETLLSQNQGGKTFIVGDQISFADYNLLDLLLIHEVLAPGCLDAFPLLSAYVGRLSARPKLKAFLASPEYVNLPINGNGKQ

143B [26] = experiment: Antitumor activity against human 143B cells xenografted in BALB/c nude mouse assessed as tumor growth inhibition at 5 mg/kg, po administered once daily for 28 consecutive days relative to control; format: functional; conditions: 672 h, time 28 day, read-out: TGI
[27] = Toxicity in BALB/c nude mouse xenografted with human 143B cells assessed as lung edema at 5 to 20 mg/kg, po administered once daily for 28 consecutive days by hematoxylin-eosin staining based assay; format: organism-based; conditions: in vivo, 672 h, dose 5-20 mg/kg, time 28 day

CN(C)CCCNC(=O)CCC(=O)OCCCCCCSc1ccc([N+](=O)[O-])c2nonc12
Activity (143B [1]): 30.32%
Activity [2]: Non-Toxic
MRT last at 48 h [3]: 6.35 h
IC50 (A549): 1.58 µM
Activity (143B [4]): 49.79%
Activity [5]: Non-Toxic
IC50 (143B [6]): 1.18 µM
Activity (143B [7]): 21.01%
IC50 (HUVEC): 1.6 µM
Activity [8]: Non-Toxic
solubility [9]: 9000 µg/mL (≈ 18.7 mM)
Activity [10]: Non-Toxic
Activity (143B [11]): 74%
Activity (143B [12]): 15.24%
Cmax at 48 h (in vivo [13]): 1810 ng/mL
Activity [14]: Non-Toxic
Activity [15]: Non-Toxic
Activity (143B [16]): 46.5%
MRT inf at 48 h [17]: 6.54 h
metabolised at 12 h, 10000 µM (liver carboxylesterase): 33%
Activity [18]: Non-Toxic
Activity [19]: Non-Toxic
Activity (143B [20]): 48.67%
Activity [21]: Non-Toxic
IC50 [22]: 0.95 µM
IC50 [23]: 0.16 µM
Tmax at 48 h (in vivo [24]): 2.33 h
Kinact [25]: 0.17 min⁻¹
inhibition in vivo at 5 mg/kg (143B [26]): 46.4%
Activity [27]: Non-Toxic
